Results published in PMC8196871, “Molecular Imaging and Preclinical Studies of Radiolabeled Long-Term RGD Peptides in U-87 MG Tumor-Bearing Mice” (International Journal of Molecular Sciences, 2021).

What was measured:
[1] = tested on: U-87 MG cells; type: binding, human; conditions: 4 h
Experimental: As the concentration of unlabeled DOTA-EB-cRGDfK or DOTA-cRGDfK increased, the binding ratio of ^111In-DOTA-EB-cRGDfK decreased, indicating the presence of specific binding affinity (Figure 2C).
U-87 MG cells were seeded into 24-well plates at a density of 1 × 10^5 cells per well and incubated overnight. Different concentrations ranging from 0.01 nM to 5000 nM of DOTA-EB-cRGDfK or DOTA-cRGDfK were added to the wells. U-87 MG cells were then incubated with 10 nM ^111In-DOTA-EB-cRGDfK for 4 h at 37 °C. Cells were washed once with 0.5 mL PBS and were removed from each well by 0.25% trypsin-EDTA (Gibco, Gaithersburg, MD, USA). The cell suspensions were collected and measured by using a PerkinElmer 2480 Automatic Gamma Counter (PerkinElmer, Waltham, MA, USA). Binding results were expressed as a percent of total counts, and IC50 values were calculated using SigmaPlot 12.5 (Systat Software, Inc., San Jose, CA, USA).

[2] = mouse, in vivo, iv
Experimental: Blood samples (10 μL) were collected by heart puncture under 2% isoflurane anesthesia at 0.083, 0.5, 2, 4, 24, 48, 72, 96, and 168 h. The radioactivity of blood samples was measured by PerkinElmer 2480 gamma counter and expressed as the percentage injected dose per gram (% ID/g). Data was used to determine the pharmacokinetic parameters by noncompartmental analysis (NCA) and the analysis software was WinNonlin 7.0 (Pharsight Corporation, Mountain View, CA, USA). Parameters, including terminal half-life (T1/2λz), maximum concentration (Cmax), total body clearance (Cl), area under curve (AUC), and mean residence time (MRT) were determined. Pharmacokinetic parameters associated with the terminal phase were calculated using the best-fit method to estimate the terminal half-life.

[3] = NanoSPECT/CT imaging with image quantification; type: in vivo; conditions: female, NOD/SCID, mouse, tumor, iv, 2.5 ug, total radioactivity; 0.5 h after tail-vein injection (about 18.5 MBq, 2.5 μg); U-87 MG xenografts in mice; nanoSPECT/CT ROI
Experimental: Figure 3 presented nanoSPECT/CT images of U-87 MG xenografts in mice administered with different radiolabeled peptides. […] Comparing with ^111In-DOTA-EB-cRGDfK, the highest tumor uptake of ^111In-DOTA-cRGDfK was 2.0 ± 0.5% ID/g at 0.5 h. […] The ratios of tumor to muscle and tumor to liver were 1.8 ± 0.7 and 0.5 ± 0.1 at 0.5 h, respectively. The highest tumor uptake of ^111In-DOTA-EB was 10.3 ± 4.4% ID/g at 24 h, and it slightly dropped to 9.97 ± 4.37% ID/g at 72 h.
The human glioblastoma cell line, U-87 MG (stock number: BCRC 60360), was obtained from Bioresource Collection and Research Center. Cells were grown in Minimum Essential Medium (MEM; Gibco, Grand Island, NY, USA) supplemented with 10% (v/v) fetal bovine serum (FBS; Gibco, Gaithersburg, MD, USA) and 1% antibiotic antimycotic solution (Sigma-Aldrich, St. Louis, MO, USA) at 37 °C under 5% CO2 incubation. Female non-obese diabetic, severe combined immunodeficiency (NOD/SCID) mice were obtained from BioLASCO Taiwan Co., Ltd. The 6-week-old mice were housed in a 12 h light cycle at 22 °C, with food and water provided ad libitum. […]
The procedure for nanoSPECT/CT imaging has been previously described. […] The image quantification of the region of interest (ROI) was acquired by PMOD v. […]

[4] = tested on: tumor; design: method as in PMID 25621196; conditions: cited from earlier work

`N=C(N)NCCC[C@@H]1NC(=O)[C@H](CCCCNC(=O)CN2CCN(CC(=O)O)CCN(CC(=O)O)CCN(CC(=O)O)CC2)NC(=O)[C@@H](Cc2ccccc2)NC(=O)[C@H](CC(=O)O)NC(=O)CNC1=O` [DOTA-cRGDfK] gave an IC50 [1] of 35.2 nM.
For `N=C(N)NCCC[C@@H]1NC(=O)[C@H](CCCCNC(=O)CN2CCN(CC(=O)O)CCN(CC(=O)O)CCN(CC(=O)O)CC2)NC(=O)[C@@H](Cc2ccccc2)NC(=O)[C@H](CC(=O)O)NC(=O)CNC1=O` [^111In-DOTA-cRGDfK, metal not drawn], the “Cl (total body clearance)” value [2] was 12.9 mL/h, the “Maximum concentration (Cmax) in blood” value [2] was 3.74 % ID/g and the “T1/2λz (terminal half-life)” value [2] was 17.2 h. For the same compound, the tissue uptake at 0.5 h [3] was 2 ± 0.5 %ID/g.
In the case of `N[C@@H](Cc1ccc(B(O)O)cc1[18F])C(=O)O` [^18F-BPA], the Tumor uptake [4] is given as 1.44 ± 0.44 % ID/g.
